Source: publication PMC12843137, “Fine-Tuning Side Chain Substitutions: Impacts on the Lipophilicity–Solubility–Permeability Interplay in Macrocyclic Peptides” (Marine Drugs, 2025)
Read-outs that look alike come from different tables or passages of the source.

Assay: Caco-2 cell permeability study
Type: in vitro ADME
Conditions: human; for efflux ratio at 2 h, 5 µM: Caco-2, pH 7.4; for recovery at 2 h, 5 μM: Caco-2, pH 7.4, Caco-2, 5 μM; for Papp A→B at 2 h, 5 µM / Papp B→A at 2 h, 5 µM: pH 7.4, Caco-2, 5 μM; for Papp A→B at 2 h, 5 µM: apical to basolateral; for Papp B→A at 2 h, 5 µM: basolateral to apical
Source text: One of the physicochemical quantities that mirrors the interaction of a compound with the cell membrane is permeability. Traditionally, measuring permeability with the PAMPA model provides estimates of passive permeability across a model membrane. […] Therefore, we measure the cell permeability of the six compounds using Caco-2 cells, so that the apical to basolateral (A to B) and basolateral to apical (B to A) permeabilities, and thereby the efflux ratio, can be determined. Three commercial drugs (Table 2) are used as standard compounds to establish and validate our in-house assay.
For Caco-2 cells (originally obtained from the American Type Culture Collection; ATCC, Manassas, VA, USA), 50 μL and […] of cell culture medium are added to each well of the Transwell insert and reservoir, respectively. And then the HTS transwell plates are incubated at 37 °C, 5% CO2 for 1 h before cell seeding. Caco-2 cells are diluted to 6.86 × 10^5 cells/mL with culture medium and 50 μL of cell suspension is dispensed into the filter well of the 96-well HTS Transwell plate. Cells are cultivated for 14–18 days in a cell culture incubator at 37 °C, 5% CO2, 95% relative humidity. Cell culture medium is replaced every other day, beginning no later than 24 h after initial plating. Stock solutions of the test compounds are prepared at a concentration of 10 mM in DMSO. […] Detailed assay procedures are provided in the SI. […]
dilution factor is changed according to the log D value and the LC-MS signal response. The samples are evaluated by LC-MS/MS analysis. All experiments are performed in duplicates.
5. Caco-2 Cell Permeability Assay
The Caco-2 plate is removed from the incubator and washed twice with pre-warmed HBSS (10 mM HEPES, pH 7.4), and then incubated at 37 °C for 30 minutes. The stock solutions of control compounds and test compounds are diluted in DMSO to get 1 mM solutions and then diluted with HBSS (10 mM HEPES, pH 7.4) get 5 μM working solutions. The final concentration of DMSO in the incubation system is 0.5%. To determine the rate of drug transport in the apical to basolateral direction. 125 μL of 5 μM working solution of control compounds and test compounds are added to the Transwell insert (apical compartment), and transfer 50 μL sample (D0 sample) immediately from the apical compartment to a new 96-well plate. Fill the wells in the receiver plate (basolateral compartment) with 235 μL of HBSS (10 mM HEPES, pH 7.4). To determine the rate of drug transport in the basolateral to apical direction. 285 μL of 5 μM working solution of control compounds and test compounds are to the receiver plate wells (basolateral compartment), and transfer 50 μL sample (D0 sample) immediately from the basolateral compartment to a new 96-well plate.
Fill the wells in the Transwell insert (apical compartment) with 75 μL of HBSS (10 mM HEPES, pH 7.4).
The assay is performed in duplicate. The plates are incubated at 37 °C for 2 h. At the end of the incubation, 50 μL samples from donor sides (apical compartment for Ap→Bl flux, and basolateral compartment for Bl→Ap) and receiver sides (basolateral compartment for Ap→Bl flux, and apical compartment for Bl→Ap) are transferred to wells of a new 96-well plate, followed by the addition of 4 volume of cold acetonitrile containing appropriate internal standards (IS). Samples are Vortexed for 5 minutes and then centrifuged at 3,220 g for 30 minutes. An aliquot of 100 µL of the supernatant is mixed with an appropriate volume of ultra-pure water before LC-MS/MS analysis (see SI Bioanalytical Method for Caco-2 Cell Permeability […]
Papp (A to B) is greater than the Papp (A to B) of minoxidil it is assigned as high permeability. If the Papp (A to B) is […]

[1] = read-out: Mean % Solution Recovery A to B
[2] = read-out: Mean % Solution Recovery B to A

Row | efflux ratio at 2 h, 5 µM | recovery at 2 h, 5 μM [1] [%] | recovery at 2 h, 5 μM [2] [%] | Papp A→B at 2 h, 5 µM [×10⁻⁶ cm/s] | Papp B→A at 2 h, 5 µM [×10⁻⁶ cm/s] | SMILES
1 | > 65.3 | < 23.5 | 8.99 | < 0.0144 | 0.942 | CCCCCCCCCCCCCC1OC(=O)CN(C)C(=O)C=CC(CN2CCN(C)CC2)NC(=O)CNC(=O)C(C)(O)C(=O)C1C (stereo not shown) [BE-NMP]
2 | – | < 92.9 | < 71.1 | < 0.00798 | < 0.00266 | CCCCOc1ccc(-c2ccc(-c3ccc(Cn4cc(CCCCC[C@H]5OC(=O)CN(C)C(=O)/C=C/[C@@H](CN6CCN(C)CC6)NC(=O)CNC(=O)[C@@](C)(O)C(=O)[C@H]5C)nn4)cc3)cc2)cc1 [Compound 29]
3 | 2.57 | 109 | 70.4 | 0.0348 | 0.0894 | CC1C(=O)C(C)(O)C(=O)NCC(=O)NC(CN2CCN(C)CC2)C=CC(=O)N(C)CC(=O)OC1CCCCc1cn(CCCCCCCCNC(=N)N)nn1 (stereo not shown) [Compound 31]
4 | > 10.8 | < 89.4 | 50.4 | < 0.0116 | 0.13 | C[C@@H]1C(=O)[C@](C)(O)C(=O)NCC(=O)N[C@H](CN2CCN(C)CC2)/C=C/C(=O)N(C)CC(=O)O[C@H]1CCCCCc1cn(CCCCCCCNc2cccc3c2CN(C2CCC(=O)NC2=O)C3=O)nn1 (stereo partly shown) [Compound 40]
